US11066414B2, “Cot modulators and methods of use thereof” (Gilead Sciences, Inc., priority 2015, dated 2021)
Like-named read-outs stand apart in the source and are kept apart here.

What was measured:
TNFα = assay: Cot Monocyte TNFα Cell Based Assay
Human Cot = Human Cot (Homo sapiens (Human), UniProt P41279); assay: High Throughput Cot Biochemical Assay; conditions: Cot HTRF (TR-FRET) biochemical assay
[1] = Homo sapiens, Monocyte, read-out: EC50 TNF, LPS-stimulated human monocytes, TNFα
[2] = read-out: EC50 TNF, LPS-stimulated human monocytes, TNFα

Human Cot, sequence (P41279 30-397): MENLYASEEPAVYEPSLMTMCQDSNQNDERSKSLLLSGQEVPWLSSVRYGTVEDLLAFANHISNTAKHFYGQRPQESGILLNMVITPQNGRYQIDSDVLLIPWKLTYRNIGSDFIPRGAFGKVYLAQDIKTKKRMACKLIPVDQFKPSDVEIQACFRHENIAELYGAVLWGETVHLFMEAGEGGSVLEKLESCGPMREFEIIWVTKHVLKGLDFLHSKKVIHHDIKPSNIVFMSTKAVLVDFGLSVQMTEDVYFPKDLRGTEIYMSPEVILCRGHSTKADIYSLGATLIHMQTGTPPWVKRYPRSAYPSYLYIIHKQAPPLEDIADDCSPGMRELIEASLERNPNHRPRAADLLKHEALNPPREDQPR

EC50 (TNFα; [1]) | IC50 (Human Cot; IC50 HTRF) | EC50 (TNFα; [2]) | IC50 (Human Cot; read-out: IC50 HTRF) | Structure (SMILES)
95 nM | 2 nM | – | – | [2H][C@](Nc1cc(Cl)c2ncc(C#N)c(N[C@H](CC)c3ccccc3)c2c1)(c1cccnc1)c1cn(C2CC2)nn1 [Example 159, 8-chloro-6-(((S)-(1-cyclopropyl-1H-1,2,3-triazol-4-yl)(pyridin-3-yl)methyl-d)amino)-4-(((R)-1-phenylpropyl)amino)quinoline-3-carbonitrile]
506 nM | 4 nM | – | – | CC(C)(C)CNc1c(C#N)cnc2c(Cl)cc(N[C@@H](c3cccnc3)c3c[nH]nn3)cc12 [Example 167, (S)-8-chloro-4-(neopentylamino)-6-((pyridin-3-yl(1H-1,2,3-triazol-4-yl)methyl)amino)quinoline-3-carbonitrile]
73 nM | 3 nM | – | – | CC[C@@H](Nc1c(C#N)cnc2c(Cl)cc(N[C@@H](c3cccnc3)c3cn(CC#N)nn3)cc12)c1ccccc1 [Example 175, 8-chloro-6-(((S)-(1-(cyanomethyl)-1H-1,2,3-triazol-4-yl)(pyridin-3-yl)methyl)amino)-4-(((R)-1-phenylpropyl)amino)quinoline-3-carbonitrile]
31 nM | 2 nM | – | – | CC[C@@H](Nc1c(C#N)cnc2c(Cl)cc(N[C@@H](c3cccnc3)c3cn(CCCN4CCCC4)nn3)cc12)c1ccccc1 [Example 176, 8-chloro-4-(((R)-1-phenylpropyl)amino)-6-(((S)-pyridin-3-yl(1-(3-(pyrrolidin-1-yl)propyl)-1H-1,2,3-triazol-4-yl)methyl)amino)quinoline-3-carbonitrile]
79 nM | 2 nM | – | – | CC[C@@H](Nc1c(C#N)cnc2c(Cl)cc(N[C@@H](c3cccnc3)c3cn(CCF)nn3)cc12)c1ccccc1 [Example 177, 8-chloro-6-(((S)-(1-(2-fluoroethyl)-1H-1,2,3-triazol-4-yl)(pyridin-3-yl)methyl)amino)-4-(((R)-1-phenylpropyl)amino)quinoline-3-carbonitrile]
931 nM | 7 nM | – | – | N#Cc1cnc2c(Cl)cc(N[C@@H](c3cccnc3)c3c[nH]nn3)cc2c1N[C@@H](CCO)c1ccccc1 [Example 178, 8-chloro-4-(((S)-3-hydroxy-1-phenylpropyl)amino)-6-(((S)-pyridin-3-yl(1H-1,2,3-triazol-4-yl)methyl)amino)quinoline-3-carbonitrile]
> 10000 nM | 265 nM | – | – | N#Cc1cnc2c(Cl)cc(N[C@@H](c3cccnc3)c3c[nH]nn3)cc2c1N[C@H](CCO)c1ccccc1 [Example 179, 8-chloro-4-(((R)-3-hydroxy-1-phenylpropyl)amino)-6-(((S)-pyridin-3-yl(1H-1,2,3-triazol-4-yl)methyl)amino)quinoline-3-carbonitrile]
– | – | 104 nM | 1 nM | CC[C@@H](Nc1c(C#N)cnc2c(Cl)cc(N[C@@H](c3cccnc3)c3cn([C@H]4[C@@H]5CNC[C@@H]54)nn3)cc12)c1ccccc1 [Example 180, 6-(((S)-(1-((• R,5S,6s)-3-azabicyclo[3.1 0]hexan-6-yl)-1H-1,2,3-triazol-4-yl)(pyridin-3-yl)methyl)amino)-8-chloro-4-(((R)-1-phenylpropyl)amino)-quinoline-3-carbonitrile]

Continued, compound first:

Structure (SMILES) | EC50 (TNFα; [1]) | IC50 (Human Cot; IC50 HTRF) | EC50 (TNFα; [2]) | IC50 (Human Cot; read-out: IC50 HTRF)
Cc1ncccc1[C@H](Nc1cc(Cl)c2ncc(C#N)c(Nc3cnc(F)c(F)c3)c2c1)c1cn(C2CC2)nn1 [Example 150, (S)-8-chloro-6-(((1-cyclopropyl-1H-1,2,3-triazol-4-yl)(2-methylpyridin-3-yl)methyl)amino)-4-((5,6-difluoropyridin-3-yl)amino)quinoline-3-carbonitrile] | 154 nM | 4 nM | – | –
N#Cc1cnc2c(Cl)cc(N[C@H](c3c[nH]nn3)c3cccnc3F)cc2c1Nc1cnc(F)c(F)c1 [Example 151, (S)-8-chloro-4-((5,6-difluoropyridin-3-yl)amino)-6-(((2-fluoropyridin-3-yl)(1H-1,2,3-triazol-4-yl)methyl)amino)quinoline-3-carbonitrile] | 1300 nM | 8 nM | – | –
N#Cc1cnc2c(Cl)cc(N[C@@H](c3cncc(Cl)c3)c3c[nH]nn3)cc2c1Nc1cnc(F)c(F)c1 [Example 152, (S)-8-chloro-6-(((5-chloropyridin-3-yl)(1H-1,2,3-triazol-4-yl)methyl)amino)-4-((5,6-difluoropyridin-3-yl)amino)quinoline-3-carbonitrile] | 904 nM | 10 nM | – | –
N#Cc1cnc2c(Cl)cc(N[C@H](c3c[nH]nn3)c3cnccc3Cl)cc2c1Nc1cnc(F)c(F)c1 [Example 153, (S)-8-chloro-6-(((4-chloropyridin-3-yl)(1H-1,2,3-triazol-4-yl)methyl)amino)-4-((5,6-difluoropyridin-3-yl)amino)quinoline-3-carbonitrile] | 3760 nM | 44 nM | – | –
N#Cc1cnc2c(Cl)cc(N[C@H](c3c[nH]nn3)c3ccc(F)nc3F)cc2c1Nc1cnc(F)c(F)c1 [Example 154, (S)-8-chloro-6-(((2,6-difluoropyridin-3-yl)(1H-1,2,3-triazol-4-yl)methyl)amino)-4-((5,6-difluoropyridin-3-yl)amino)quinoline-3-carbonitrile] | 1670 nM | 26 nM | – | –
[2H][C@](Nc1cc(Cl)c2ncc(C#N)c(N[C@H](CC)c3ccccc3)c2c1)(c1ccc(F)nc1)c1cn(C2CC2)nn1 [Example 155, 8-chloro-6-(((S)-(1-cyclopropyl-1H-1,2,3-triazol-4-yl)(6-fluoropyridin-3-yl)methyl-d)amino)-4-(((R)-1-phenylpropyl)amino)quinoline-3-carbonitrile] | 79 nM | 2 nM | – | –
CC(C)n1cc([C@@H](Nc2cc(Cl)c3ncc(C#N)c(Nc4ccc(F)c(Cl)c4)c3c2)c2cccn3nccc23)nn1 [Example 157, (S)-8-chloro-4-((3-chloro-4-fluorophenyl)amino)-6-(((1-isopropyl-1H-1,2,3-triazol-4-yl)(pyrazolo[1,5-a]pyridin-4-yl)methyl)amino)-quinoline-3-carbonitrile] | 127 nM | 5 nM | – | –
N#Cc1cnc2c(Cl)cc(N[C@@H](c3cccnc3)c3cn(-c4ccccc4)nn3)cc2c1Nc1cnc(F)c(F)c1 [Example 160, (S)-8-chloro-4-((5,6-difluoropyridin-3-yl)amino)-6-(((1-phenyl-1H-1,2,3-triazol-4-yl)(pyridin-3-yl)methyl)amino)quinoline-3-carbonitrile] | 484 nM | 11 nM | – | –
[2H][C@](Nc1cc(Cl)c2ncc(C#N)c(Nc3cnc(F)c(F)c3)c2c1)(c1cccnc1)c1cn(-c2ccccc2)nn1 [Example 162, (S)-8-chloro-4-((5,6-difluoropyridin-3-yl)amino)-6-(((1-phenyl-1H-1,2,3-triazol-4-yl)(pyridin-3-yl)methyl-d)amino)quinoline-3-carbonitrile] | 429 nM | 7 nM | – | –
[2H][C@](Nc1cc(Cl)c2ncc(C#N)c(Nc3cnc(F)c(F)c3)c2c1)(c1cccnc1)c1c[nH]nn1 [Example 164, (S)-8-chloro-4-((5,6-difluoropyridin-3-yl)amino)-6-((pyridin-3-yl(1H-1,2,3-triazol-4-yl)methyl-d)amino)quinoline-3-carbonitrile] | 1800 nM | 5 nM | – | –
Cn1nccc1[C@H](Nc1cc(Cl)c2ncc(C#N)c(Nc3cnc(F)c(F)c3)c2c1)c1c[nH]nn1 [Example 165, (S)-8-chloro-4-((5,6-difluoropyridin-3-yl)amino)-6-(((1-methyl-1H-pyrazol-5-yl)(1H-1,2,3-triazol-4-yl)methyl)amino)quinoline-3-carbonitrile] | 2370 nM | 9 nM | – | –
N#Cc1cnc2c(Cl)cc(N[C@@H](c3ccc(F)nc3)c3c[nH]nn3)cc2c1Nc1cnc(F)c(F)c1 [Example 166, (S)-8-chloro-4-((5,6-difluoropyridin-3-yl)amino)-6-(((6-fluoropyridin-3-yl)(1H-1,2,3-triazol-4-yl)methyl)amino)quinoline-3-carbonitrile] | 1420 nM | 6 nM | – | –
CC(C)(C)CNc1c(C#N)cnc2c(Cl)cc(N[C@@H](c3cccnc3)c3cn(C4COC4)nn3)cc12 [Example 168, (S)-8-chloro-4-(neopentylamino)-6-(((1-(oxetan-3-yl)-1H-1,2,3-triazol-4-yl)(pyridin-3-yl)methyl)amino)quinoline-3-carbonitrile] | 394 nM | 6 nM | – | –
Cc1ncccc1[C@H](Nc1cc(Cl)c2ncc(C#N)c(N[C@H](C)c3ccccc3)c2c1)c1cn(C2COC2)nn1 [Example 171, 8-chloro-6-(((S)-(2-methylpyridin-3-yl)(1-(oxetan-3-yl)-1H-1,2,3-triazol-4-yl)methyl)amino)-4-(((R)-1-phenylethyl)amino)quinoline-3-carbonitrile] | 320 nM | 10 nM | – | –
Cc1ncccc1[C@H](Nc1cc(Cl)c2ncc(C#N)c(Nc3cnc(F)c(F)c3)c2c1)c1cn(C2COC2)nn1 [Example 172, (S)-8-chloro-4-((5,6-difluoropyridin-3-yl)amino)-6-(((2-methylpyridin-3-yl)(1-(oxetan-3-yl)-1H-1,2,3-triazol-4-yl)methyl)amino)quinoline-3-carbonitrile] | 832 nM | 10 nM | – | –
Cc1ncccc1[C@H](Nc1cc(Cl)c2ncc(C#N)c(Nc3cnc(F)c(F)c3)c2c1)c1c[nH]nn1 [Example 173, (S)-8-chloro-4-((5,6-difluoropyridin-3-yl)amino)-6-(((2-methylpyridin-3-yl)(1H-1,2,3-triazol-4-yl)methyl)amino)quinoline-3-carbonitrile] | 1110 nM | 7 nM | – | –
CC[C@@H](Nc1c(C#N)cnc2c(Cl)cc(N[C@@H](c3cccnc3)c3cn([C@H]4[C@@H]5CN(C6COC6)C[C@@H]54)nn3)cc12)c1ccccc1 [Example 174, 8-chloro-6-(((S)-(1-((1 R,5S,6s)-3-(oxetan-3-yl)-3-azabicyclo[3.1,0]hexan-6-yl)-1H-1,2,3-triazol-4-yl)(pyridin-3-yl)methyl)amino)-4-(((R)-1-phenylpropyl)amino)quinoline-3-carbonitrile] | – | – | 54 nM | 2 nM
